Laboratory results: patent US20070021415A1, “Pharmaceutical composition for the prevention or treatment of cerebral oedemas” (priority 2005, published 2007)
Like-named read-outs stand apart in the source and are kept apart here.

Columns and labels:
[1] = test system: cerebral oedema induced by triethyl tin (TET) in the rat; conditions: in vivo
[2] = rat, in vivo; for weight gain (in words): po, 50 mg/kg/day
[3] = test system: cerebral oedema induced by triethyl tin (TET) chloride in the rat; conditions: administered during the intoxication with tin, measured after 5 days (Linee et al., 1984); cited from earlier work

Row | Compound | weight of the dried brain ([1]; po) | Variation in percentage ([1]; po, 50 mg/kg/day) [%] | weight gain (in words) [2] | activity in the preventive protocol [3] | also measured
1 | CC1(c2ccccc2)OC(N)=Nc2ccc(Cl)cc21 (stereo not drawn) [desethyl-etifoxine, 2-amino-6-chloro-4-methyl-4-phenyl-4H-[3,1]benzoxazine] | do not modify this parameter significantly | −0.09 | does not disrupt the weight gain | – | Variation in percentage [1]: +0.39%
2 | (−)eburnamonine | – | – | – | active | –
3 | CC[C@]12CCCN3CCc4c(n(c5ccccc45)[C@@](O)(C(=O)OC)C1)[C@@H]32 [vincamine] | – | – | – | active | –
4 | CCNC1=Nc2ccc(Cl)cc2C(C)(c2ccccc2)O1.Cl (stereo not drawn) [etifoxine, 6-chloro-2-ethylamino-4-methyl-4-phenyl-4H-[3,1]benzoxazine hydrochloride] | do not modify this parameter significantly | −0.30 | does not disrupt weight gain | – | Variation in percentage ([1]; po, 100 mg/kg/day): −0.07%; Body weight in grams (mean ± s.e.m.) [2]: 251 ± 4 grams
5 | dihydroergotoxin | – | – | – | active | –
